Laboratory results reported in patent US9556231B2, “Beta-hairpin peptidomimetics as CXC4 antagonists” (POLYPHOR AG, priority 2011, dated 2017).
Bridge positions count the residues as written; N and C are the ends. Square brackets hold non-standard residues; d marks the D form. Peptide text beside a SMILES is read from it. Lys(iPr) = CC(C)NCCCC[C@H](N)C(=O)O; Orn(iPr) = CC(C)NCCC[C@H](N)C(=O)O

Experiments:
[1] = Cytotoxicity, MTT reduction assay, COS-7 cells; format: cell-based; details: African green monkey
Description: Namalwa cells (CXCR4 natively expressing non-adherent cells, ATCC CRL-1432) were cultured in RPMI1640 plus 10% FBS, and pen/strept. HELA cells were maintained in RPMI1640 plus 10% FBS, pen/strept and 2 mM L-glutamine. Cos-7 cells were grown in DMEM medium with […] glucose supplemented with 10% FCS, pen/strept and 2 mM L-glutamine. All cell lines were grown at 37° C. at 5% CO2. Cell media, media supplements, PBS-buffer, HEPES, antibiotic/antimycotic, pen/strept, non essential amino acid, L-glutamine, β-mercaptoethanol and sera were purchased from Gibco (Pailsey, UK). All fine chemicals were supplied by Merck (Darmstadt, Germany).
The cytotoxicity of the peptides to HELA cells (Acc57) and COS-7 cells (CRL-1651) was determined using the MTT reduction assay (T. Mossman, J. Immunol. Meth. 1983, 65, 55-63; M. V. Berridge, A. S. Tan, Arch. Biochem. Biophys. 1993, 303, 474-482). Briefly, the method was as follows: 4000 HELA cells/well and 3400 COS-7 cells/well were seeded and grown in 96-well microtiter plates for 24 h at 37° C. at 5% CO2. Thereafter, time zero (Tz) was determined by MTT reduction (see below). The supernatant of the remaining wells was discarded, and fresh medium and compounds in serial dilutions (12.5, 25 and 50 μM, triplicates; 0 μM, blank) were pipetted into the wells. After incubation of the cells for 48 h at 37° C. at 5% CO2 the supernatant was discarded again and 100 μL MTT reagent (0.5 mg/mL in RPMI1640 and DMEM, respectively)/well was added. Following incubation at 37° C. for 2-4 h the media were aspirated and the cells were spiked (100 μL isopropanol/well). The absorbance of the solubilized formazan was measured at 595 nm (OD595peptide). For each concentration averages were calculated from triplicates. The percentage of growth was calculated as follows: (OD595peptide−OD595Tz)/(OD595blank−OD595Tz)×100%. The GI50 (Growth Inhibition) concentrations were calculated for each peptide by using a trend line function for the concentrations (50, 25, 12.5 and 0 μM), the corresponding percentages and the value 50, (=TREND (C50:C0,%50:%0,50).

[2] = Plasma stability, human plasma; format: in vitro ADME; details: 37° C., 1440 min, read-out: human pl. cpd left at 1440 min
Description: (§1) The stability of the peptides in human and mouse plasma was determined by applying the following method: 346.5 μL/deep well of freshly thawed human plasma (Basler Blutspende-dienst) and mouse plasma (Harlan Sera-Lab, UK), respectively, were spiked with 3.5 μL/well of compound dissolved in DMSO/H2O (90/10 [v/v], 1 mM, triplicate) and incubated at 37° C. At t=0, 15, 30, 60, 120, 240 and 1440 min aliquots of 50 μL were transferred to filtration plate wells containing 150 μL/well of 2% formic acid in acetonitrile. Following shaking for 2 min the occurred suspensions were filtrated by vacuum. 100 μL of each filtrate were transferred to a propylene microtiter plate and dried under N2. The residual solids were reconstituted by adding 100 μL/well of water/acetonitrile, 95/5 (v/v)+0.2% formic acid and analyzed by LC/MS as follows: Column: Waters, XBridge C18, mobile phases: (A) water+0.1% formic acid and (B) acetonitrile/water, 95/5 (v/v)+0.1% formic acid, gradient: 5%-100% (B) in 1.8 minutes, electrospray ionization, MRM detection (triple quadrupole). The peak areas were determined and triplicate values are averaged. The stability is expressed in percent of the initial value at t=0·(tx/t0×100). By using the TREND function of EXCEL (Microsoft Office 2003) T1/2 were determined.

[3] = Plasma stability, mouse plasma; format: in vitro ADME; details: 37° C.; for remaining at 24 h: 1440 min, read-out: mouse pl. cpd left at 1440 min; for mouse pl. T1/2: up to 1440 min
Description: as §1

[4] = Pharmacokinetic study (PK), i.v., CD-1 mice; format: in vivo; details: male, CD-1, in vivo, iv, mouse, i.v. 1 mg/kg; for level at 0.083 h / level at 0.25 h / level at 0.5 h / level at 1 h / level at 2 h / level at 3 h / level at 4 h: read-out: Calc. Conc. (plasma); for AUC(0-inf) / Cmax / clearance / half-life / Vd: one-compartmental model; for Vd: read-out: Vdis
Description: For the compounds of Ex. 1, Ex. 2, Ex. 3, Ex. 4, Ex. 5 and Ex. 6 pharmacokinetic studies after intravenous (i.v.) administration were performed.
30 grams (±20%) male CD-1 mice obtained from Charles River Laboratories Deutschland GmbH were used. The vehicle, phosphate buffered saline, was added to give a final concentration of 0.5 mg/mL of the compound. The volume was 2 mL/kg and the compound was injected to give a final intravenous dose of 1 mg/kg. Approximately 300-400 μL of blood was removed under light isoflurane anesthesia by cardiac puncture at predetermined time intervals (5, 15, 30 min and 1, 2, 3, 4, hours) and added to heparinized tubes. Plasma was removed from pelleted cells upon centrifugation and frozen at −80° C. prior to HPLC-MS analysis.
Aliquots of 50 μL each of mouse plasma of untreated aminals (“blank” mouse plasma) were spiked with known amounts of the compounds Ex. 1, Ex. 2, Ex. 3, Ex. 4, Ex. 5 and Ex. 6 in order to obtain 10 plasma calibration samples for each compound in the range 1-4000 ng/mL. Aliquots of 50 μL each of mouse plasma from treated animals were used as plasma study samples.
All plasma samples were spiked with an appropriate internal standard and extracted with acetonitrile containing 2% formic acid. Supernatants were evaporated to dryness under nitrogen and the remaining solids reconstituted in water/acetonitrile 95/5 (v/v)+0.2% formic acid.
Extracts were then analyzed by reverse-phase chromatography (Acquity BEH C18, 100×2.1 mm, 1.7 μm column, Waters for Ex. 1 and Acquity HSS C18 SB, 100×2.1 mm, 1.8 μm column, Waters for Ex. 2, Ex. 3, Ex. 4, Ex. 5 and Ex. 6), using the following conditions: Ex. 1, mobile phases: (A) water/acetonitrile 95/5 (v/v)+0.1% formic acid, (B) acetonitrile/water 95/5 (v/v)+0.1% formic acid, gradient: 1% (B) 0-0.1 min, 15% (B) 0.1-2.5 min for Ex. 1 and 1% (B) 0-0.1 min, 40% (B) 0.1-2.5 min for Ex. 2, Ex. 3, Ex. 4, Ex. 5 and Ex. 6. The detection and quantification was performed by mass spectrometry, with electrospray interface in positive mode and selective fragmentation of analytes (4000 Q Trap mass spectrometer, AB Sciex).
PK parameters were calculated by WinNonLin™ software version 5.3 (Pharsight-A Certara™ Company, Mountain View, Calif. 94041 USA) using a one-compartmental model analysis. PK parameters were determined by least-square fitting of the model to the experimental data.

Row | Compound | GI50 at 48 h [1] | remaining at 24 h [2] | remaining at 24 h [3] | mouse pl. T1/2 [3] | level at 0.083 h [4] | level at 0.25 h [4] | level at 0.5 h [4] | level at 1 h [4] | level at 2 h [4] | level at 3 h [4] | AUC(0-inf) [4] | Cmax [4] | clearance [4] | half-life [4] | Vd [4] | level at 4 h [4]
1 | CC(C)NCCCC[C@@H]1NC(=O)[C@H](CCC(N)=O)NC(=O)[C@H](Cc2ccc(O)cc2)NC(=O)[C@@H]2CSSC[C@H](NC(=O)[C@H](Cc3ccc(O)cc3)NC(=O)[C@H](Cc3c[nH]cn3)NC(=O)[C@H](Cc3ccc(O)cc3)NC(=O)[C@@H]3CCCN3C(=O)[C@H]3CCCN3C1=O)C(=O)N[C@@H](CO)C(=O)N[C@@H](C)C(=O)N1CCC[C@@H]1C(=O)N[C@@H](CCCNC(C)C)C(=O)N[C@@H](CCCNC(=N)N)C(=O)N[C@@H](Cc1ccc(O)cc1)C(=O)N2 [Ex. 1, cyclo(-Tyr^1-His^2-Tyr^3-Cys^4-Ser^5-Ala^6-^DPro^7-Orn(iPr)^8-Arg^9-Tyr^10-Cys^11-Tyr^12-Gln^13-Lys(iPr)^14-^DPro^15-Pro^16-) disulfide bond between Cys^4 and Cys^11] (cyclo(YHYCSA[dP][Orn(iPr)]RYCYQ[Lys(iPr)][dP]P); disulfide 4-11) | > 50 µM | 77% | 100% | 1440 min | 1720 ng/mL | 989 ng/mL | 947 ng/mL | 373 ng/mL | 129 ng/mL | 15 ng/mL | 1150 ng·h/mL | 1830 ng/mL | 14.5 mL/min/kg | 24 min | 0.547 L/kg | –
2 | COc1ccc(C[C@H]2NC(=O)[C@H](C)NC(=O)[C@H](CO)NC(=O)[C@@H]3CSSC[C@H](NC(=O)[C@H](Cc4ccc(O)cc4)NC(=O)[C@H](CCCNC(=N)N)NC(=O)[C@H](CCCNC(C)C)NC2=O)C(=O)N[C@@H](Cc2ccc(O)cc2)C(=O)N[C@@H](CCC(N)=O)C(=O)N[C@@H](CCCCNC(C)C)C(=O)N2CCC[C@@H]2C(=O)N2CCC[C@H]2C(=O)N[C@@H](Cc2ccc(O)cc2)C(=O)N[C@@H](Cc2c[nH]cn2)C(=O)N[C@@H](C)C(=O)N3)cc1 [Ex. 4, cyclo(-Tyr^1-His^2-Ala^3-Cys^4-Ser^5-Ala^6-^DTyr(Me)^7-Orn(iPr)^8-Arg^9-Tyr^10-Cys^11-Tyr^12-Gln^13-Lys(iPr)^14-^DPro^15-Pro^16-), disulfide bond between Cys^4 and Cys^11] (cyclo(YHACSA[dY](Me)[Orn(iPr)]RYCYQ[Lys(iPr)][dP]P); disulfide 4-11) | > 50 µM | 94% | 60% | 1440 min | 1620 ng/mL | 869 ng/mL | 775 ng/mL | 504 ng/mL | 159 ng/mL | 25 ng/mL | 1340 ng·h/mL | 1620 ng/mL | 12.4 mL/min/kg | 36 min | 0.607 L/kg | 13 ng/mL
3 | COc1ccc(C[C@@H]2NC(=O)[C@H](Cc3c[nH]cn3)NC(=O)[C@H](Cc3ccc(O)cc3)NC(=O)[C@@H]3CCCN3C(=O)[C@H]3CCCN3C(=O)[C@H](CCCCNC(C)C)NC(=O)[C@H](CCC(N)=O)NC(=O)[C@H](Cc3ccc(O)cc3)NC(=O)[C@@H]3CSSC[C@H](NC2=O)C(=O)N[C@@H](CO)C(=O)N[C@@H](C)C(=O)N2CCC[C@@H]2C(=O)N[C@@H](CCCNC(C)C)C(=O)N[C@@H](CCCNC(=N)N)C(=O)N[C@@H](Cc2ccc(O)cc2)C(=O)N3)cc1 [Ex. 2, cyclo(-Tyr^1-His^2-Tyr(Me)^3-Cys^4-Ser^5-Ala^6-^DPro^7-Orn(iPr)^8-Arg^9-Tyr^10-Cys^11-Tyr^12-Gln^13-Lys(iPr)^14-^DPro^15-Pro^16-), disulfide bond between Cys^4 and Cys^11] (cyclo(YHY(Me)CSA[dP][Orn(iPr)]RYCYQ[Lys(iPr)][dP]P); disulfide 4-11) | > 50 µM | 100% | 100% | 1440 min | 1430 ng/mL | 1300 ng/mL | 836 ng/mL | 578 ng/mL | 234 ng/mL | 68 ng/mL | 1520 ng·h/mL | 1580 ng/mL | 11 mL/min/kg | 42 min | 0.635 L/kg | 22 ng/mL
